“Also recorded” adds a separate entry of the source. Ends that are not written are not given here.
B1: PF-C181: peptide having multiple activities (peptide)
chain 1: KMRAGQVVFIYKLILVLLFYVLQKLFDLKKGCF
chain 2: B1 chain 1
modifications: Peptide with targeting and/or antimicrobial activity
B2: PF-C120: peptide having multiple activities (peptide)
chain 1: ASLSTMTFKVMELKELIILLCGLTMLMIQTEFV
chain 2: B2 chain 1
modifications: Peptide with targeting and/or antimicrobial activity
B3: PF-270: peptide having multiple activities (peptide)
chain 1: MYLTPYAWIAVGSIFAFSVTTIKIGDQNDEKQKSHKNDVHKR
chain 2: B3 chain 1
modifications: Peptide with targeting and/or antimicrobial activity
B4: PF-C091: peptide having multiple activities (peptide)
chain 1: ASNTPRFVRLTLFNFYSKIWNVTHLFLFNNL
chain 2: B4 chain 1
modifications: Peptide with targeting and/or antimicrobial activity
B5: PF-389: peptide having multiple activities (peptide)
chain 1: GLQFKEIAEEFHITTTALQQWHKDNGYPIYNKNNRK
chain 2: B5 chain 1
modifications: Peptide with targeting and/or antimicrobial activity
B6: PF-C180: peptide having multiple activities (peptide)
chain 1: TVEELDKAFTWGAAAALAIGVIAINVGLAAGYCYNNNDVF
chain 2: B6 chain 1
modifications: Peptide with targeting and/or antimicrobial activity

Assays:
microorganisms [1] = assay: Targeting peptide binding to target microorganisms (Tables 3, 10, 12); conditions: microorganism(s) the targeting peptide binds; binding in aqueous buffers varied with peptide solubility, preferably 1x PBS
S. pneumoniae = assay: MIC test / antimicrobial activity, S. pneumoniae; type: cell-based, Streptococcus pneumoniae
Procedure: (§1) The active AMPs, STAMPs and the like can be identified and/or validated using an in vitro screening assay.
(§2) It will be appreciated that other assays as are well known in the art or that will become apparent to those having skill in the art upon review of this disclosure may also be used to identify active AMPs. Such assays include, for example, the assay described in Lehrer et al. (1988) J. Immunol.
(§3) Peptides were evaluated for basic antimicrobial activity by broth microdilution, as described previously (Eckert et al. (2006) Antimicrob Agents Chemother., 50: 3651-3657; Eckert et al. (2006) Antimicrob Agents Chemother., 50: 1480-1488). Briefly, ˜1×10^5 cfu/mL bacteria were diluted in TH (S. mutans), or Mueller-Hinton (MH) broth (all other organisms) and distributed to 96-well plates. Serially-diluted (2-fold) peptides were then added and the plates incubated at 37° C. for 18-24 h. […] All experiments were conducted 10 times.

microorganisms [2] = assay: Peptide activities: targeting/binding, antimicrobial, growth or phenotype altering (Tables 7, 8); type: cell-based; conditions: peptides having multiple activities
microorganisms [3] = assay: Morphology, biofilm and growth disrupting peptides (Table 5); type: cell-based; set-up: key: A: Peptide aggregates; B: Less hyphal formation; Clumps; Diffuse clumps and small polyps; F: Diffuse growth; H: Thin; I: Growth inhibition; Microcolony formation; Rippled; Small polyps; Thick; W: Halo formation on top, microlonies on bottom
From the text: In certain embodiments peptides that induce alterations in phenotype or other biological activities can also be used as antimicrobial effector moieties.

S. mutans = assay: MIC test (broth microdilution) / antimicrobial activity, S. mutans; type: cell-based, Streptococcus mutans
Procedure: as §1, §2, §3

B. subtilis = assay: MIC test / antimicrobial activity, B. subtilis; type: cell-based, Bacillus subtilis; conditions: B. subtilis
Procedure: as §1, §2, §3

Row | Molecule | Target(s) (microorganisms [1]) | Activities (microorganisms [2]) | Organism MIC (μM) (S. mutans) | also measured
1 | ASKQASKQASKQASKQASKQASRSLKNHLL [PF-523] | S. epidermidis; also recorded: M. luteus; also recorded: C. albicans; also recorded: S. pneumoniae; also recorded: C. jeikeium; also recorded: C. jejuni | B M |  | Organism MIC (μM) (S. pneumoniae): S. pneumoniae, 50 μM
2 | CGKLLEQKNFFLKTR [PF-521] | S. epidermidis; also recorded: E. coli; also recorded: P. aeruginosa; also recorded: S. pneumoniae; also recorded: E. faecalis | G B M |  | Organism MIC (μM) (S. pneumoniae): S. pneumoniae, 50 μM; Organism, effect (microorganisms [3]; S. pneumoniae): S. pneumoniae (H)
3 | FIRKFLKKWLL [K-9] |  |  | S. mutans, 4 μM | 
4 | FLKFLKKFFKKLKY [K-20] |  |  | S. mutans, 8 μM | 
5 | FQKPFTGEEVEDFQDDDEIPTII [PF-437] |  | G M |  | Organism MIC (μM) (S. pneumoniae): S. pneumoniae, 50 μM; Organism, effect (microorganisms [3]; S. pneumoniae): S. pneumoniae (I)
6 | FTRKFLKFLHL [K-17] |  |  | S. mutans, 8 μM | 
7 | GIFKKFVKILYKVQKL [K-22] |  |  | S. mutans, 8 μM | 
8 | GILKKLFTKVF [K-13] |  |  | S. mutans, 16 μM | 
9 | GIVLIGLKLIPLLANVLR [PF-322] |  | G M |  | Organism MIC (μM) (B. subtilis): B. subtilis, 50 μM; Organism, effect: B. subtilis (microorganisms [3]): B. subtilis (H); Organism, effect: S. epidermidis (microorganisms [3]): S. epidermidis (C)
10 | GLGRVIGRLIKQIIWRR [K-1] |  |  | S. mutans, 25 μM | 
11 | GWLKMFKKIIGKFGKF [K-21] |  |  | S. mutans, 8 μM | 
12 | KILKFLFKKVF [K-8] |  |  | S. mutans, 4 μM | 
13 | KILKFLFKQVF [K-11] |  |  | S. mutans, 4 μM | 
14 | KILKKLFKFVF [K-12] |  |  | S. mutans, 8 μM | 
15 | KKFKKFKVLKIL [K-18] |  |  | S. mutans, 16 μM | 
16 | KLFKFLRKHLL [K-10] |  |  | S. mutans, 4 μM | 
17 | LGLTAGVAYAAQPTNQPTNQPTNQPTNQPTNQPTNQPRW-NH2 [PF-520] |  | G B M |  | Organism MIC (μM) (S. pneumoniae): S. pneumoniae, 50 μM; Organism, effect (microorganisms [3]; S. pneumoniae): S. pneumoniae (M)

Row | Molecule | Target(s) (microorganisms [1]) | Activities (microorganisms [2]) | Organism MIC (μM) (S. mutans) | also measured
18 | LLKLLKLKKLKF [K-19] |  |  | S. mutans, 16 μM | 
19 | LRKFLHKLF [K-14] |  |  | S. mutans, 8 μM | 
20 | LRKNLRWLF [K-15] |  |  | S. mutans, 4 μM | 
21 | LVLRICTDLFTFIKWTIKQRKS [PF-497] | S. mutans; also recorded: B. subtilis; also recorded: E. coli | B M |  | Organism MIC (μM) (B. subtilis): B. subtilis, 50 μM
22 | NYRLVNAIFSKIFKKKFIKF [K-7] |  |  | S. mutans, 12.5 μM | 
23 | PF-C291: peptide having multiple activities (chain 1 HPFLTGTGCPLFLIFRLFFVKAYFSFTVF; chain 2 HPFLTGTGCPLFLIFRLFFVKAYFSFTVF; Peptide with targeting and/or antimicrobial activity) | A. naeslundii; also recorded: F. nucleatum; also recorded: P. gingivalis; also recorded: S. mutans | G B |  | Organism, effect (microorganisms [3]; F. nucleatum): F. nucleatum (T); Organism, effect (microorganisms [3]; S. mutans): S. mutans (F)
24 | SIGSMIGMYSFRHKTKHIKFTFGIPFILFLQFLLVYFYILK [PF-319] | S. epidermidis; also recorded: B. subtilis; also recorded: C. difficile | G B |  | Organism, effect: B. subtilis (microorganisms [3]): B. subtilis (C); Organism, effect: S. epidermidis (microorganisms [3]): S. epidermidis (C)
25 | VWENRKKYLENEIERHNVFLKLGQEVIKGLNALASRGR [PF-257] | S. epidermidis | G B |  | Organism, effect: M. luteus (microorganisms [3]): M. luteus (R)
26 | VYRKRKSILKIYAKLKGWH [K-2] |  |  | S. mutans, 12.5 μM | 
27 | VYSFLYVLVIVRKLLSMKKRIERL [PF-499] | S. mutans; also recorded: E. coli | B M |  | Organism MIC (μM) (B. subtilis): B. subtilis, 50 μM
28 | B1 | P. gingivalis | G B |  | Organism, effect (microorganisms [3]; F. nucleatum): F. nucleatum (T)
29 | B2 | A. naeslundii; also recorded: F. nucleatum; also recorded: P. gingivalis; also recorded: S. mutans; also recorded: T. denticola | G B |  | Organism, effect (microorganisms [3]; F. nucleatum): F. nucleatum (T)
30 | B3 | S. epidermidis; also recorded: M. luteus; also recorded: P. aeruginosa | G B |  | Organism, effect: M. luteus (microorganisms [3]): M. luteus (H)
31 | B4 | A. naeslundii; also recorded: F. nucleatum; also recorded: P. gingivalis; also recorded: S. mutans; also recorded: T. denticola | G B |  | Organism, effect (microorganisms [3]; F. nucleatum): F. nucleatum (T)
32 | B5 | S. epidermidis and C. albicans and MRSA and S. pneumoniae and E. faecalis and C. jeikeium | G B |  | Organism, effect: C. jejuni (microorganisms [3]; C. jejuni): C. jejuni (R); Organism, effect: E. faecalis (microorganisms [3]; E. faecalis): E. faecalis (R); Organism, effect: MRSA (microorganisms [3]; MRSA): MRSA (C); Organism, effect: S. epidermidis (microorganisms [3]): S. epidermidis (R); Organism, effect: S. pneumoniae (microorganisms [3]; S. pneumoniae): S. pneumoniae (D)
33 | B6 | F. nucleatum; also recorded: P. gingivalis; also recorded: S. mutans; also recorded: T. denticola | G B |  | Organism, effect (microorganisms [3]; P. gingivalis): P. gingivalis (R); Organism, effect (microorganisms [3]; S. mutans): S. mutans (S)
